Data published in PubChem BioAssay (NCI).
Values joined by “and” are separate entries in the source; they are usually repeats but may differ in a detail not shown here. Identical values can stand only once.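 The compound was tested at five concentrations on cells cultured in 96-well plates, with a 48-hour exposure period. GI50 = concentration required for 50% inhibition of growth. Definition used: TGI = concentration required for complete inhibition of growth.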

Legend:
Experiment in all cases: DTP human tumour cell line panel, 48 h
A549 NSCLC = tested on: A549 NSCLC
HCT-116 colon = tested on: HCT-116 colon
HL-60(TB) leukemia = tested on: HL-60(TB) leukemia
HOP-92 NSCLC = tested on: HOP-92 NSCLC
M14 melanoma = tested on: M14 melanoma
MOLT-4 leukemia = tested on: MOLT-4 leukemia
OVCAR-4 ovarian = tested on: OVCAR-4 ovarian
RPMI-8226 leukemia = tested on: RPMI-8226 leukemia
SW-620 colon = tested on: SW-620 colon
UO-31 renal = tested on: UO-31 renal

SMILES	GI50 (A549 NSCLC)	TGI (A549 NSCLC)	GI50 (HCT-116 colon)	TGI (HCT-116 colon)	GI50 (HL-60(TB) leukemia)	TGI (HL-60(TB) leukemia)	GI50 (HOP-92 NSCLC)	TGI (HOP-92 NSCLC)	GI50 (M14 melanoma)	TGI (M14 melanoma)	GI50 (MOLT-4 leukemia)	TGI (MOLT-4 leukemia)	GI50 (OVCAR-4 ovarian)	TGI (OVCAR-4 ovarian)	GI50 (RPMI-8226 leukemia)	TGI (RPMI-8226 leukemia)	GI50 (SW-620 colon)	TGI (SW-620 colon)	GI50 (UO-31 renal)	TGI (UO-31 renal)
Cc1c(Cl)cccc1Nc1ncccc1C(=O)O	> 100 µM	> 100 µM	46.8 µM	> 100 µM	> 100 µM	> 100 µM	41.6 µM	> 100 µM	> 100 µM	> 100 µM	> 100 µM	> 100 µM	90.6 µM	> 100 µM	47.7 µM	> 100 µM	> 100 µM	> 100 µM	55.7 µM	> 100 µM
CC(=O)/C=C/c1cccc(N=S)c1		> 59.1 µM		2.72 µM		34.2 µM		> 100 µM		22.4 µM		> 75.2 µM		> 100 µM		> 27.8 µM		6.68 µM		> 74 µM
O=C(Nc1ccccc1[N+](=O)[O-])c1ccccc1		> 100 µM		> 100 µM		> 100 µM		> 100 µM		> 100 µM		> 100 µM		> 100 µM		> 100 µM		> 100 µM		> 100 µM
C/C(=N\NC(N)=S)c1ccc(C)cc1C		> 100 µM		> 100 µM		> 100 µM		> 100 µM		> 100 µM		> 100 µM		> 100 µM		> 100 µM		> 100 µM		> 100 µM
O=c1c(Cl)c(Cl)cnn1-c1ccccc1		26.9 µM and 37.6 µM		3.5 µM and 6.4 µM	0.774 µM	10.7 µM and 2.11 µM	1.98 µM and 7.58 µM	3.61 µM and 16 µM		3.25 µM and 3.42 µM		7.19 µM and 4.14 µM		3.95 µM and 2.38 µM		> 38.7 µM and 27 µM	2 µM	5.5 µM		8.91 µM and 7.47 µM
COc1ccc(-n2cc(-c3ccc(OC)c(OC)c3)[nH]c2=S)cc1Cl	> 100 µM	> 100 µM	> 100 µM	> 100 µM	> 100 µM	> 100 µM	37.3 µM	> 100 µM	> 100 µM	> 100 µM	77.4 µM	> 100 µM	> 100 µM	> 100 µM	> 100 µM	> 100 µM	> 100 µM	> 100 µM	> 100 µM	> 100 µM
COc1cc2c(c(O)c1C)C(=O)C(Cl)=CC2=O		55.8 µM		22.6 µM		5.57 µM		11.5 µM		16.5 µM		8.66 µM		33.7 µM		68.3 µM		8.29 µM		21.6 µM
Cc1c(C(=O)/C=C/c2cccc3ccccc23)[n+](=O)c2ccccc2n1[O-]		35 µM		18.8 µM		27.3 µM		22.5 µM		26.9 µM		35.4 µM		15.7 µM		41.8 µM		22.7 µM		31.2 µM
CC1=C(CCCOC(=O)NCCCl)C2=C(C)C3(CC3)[C@@](C)(O)C(=O)C2=C1	3.42 µM	> 100 µM	2.96 µM	> 100 µM	4.57 µM	> 100 µM	2.87 µM	8.24 µM	2.46 µM	8.58 µM	5.49 µM	> 100 µM	2.7 µM	> 100 µM	8.4 µM	40.1 µM	24.5 µM	> 100 µM	2.02 µM	5.76 µM
O=C(O/N=C1/CCC/C1=C\c1ccccc1)c1ccc([N+](=O)[O-])cc1		> 100 µM		> 100 µM		> 100 µM		> 100 µM		> 100 µM		> 100 µM		> 100 µM		> 100 µM		> 100 µM		74.9 µM
Cc1cc(C)nc(NS(=O)(=O)c2ccc(NC(=O)c3cccc4c(=O)c5ccccc5[nH]c34)cc2)n1		51.2 µM		30.7 µM		47.7 µM		44 µM		40.7 µM		> 100 µM		43.3 µM		83 µM		55.5 µM		45.7 µM
O=C1CC[C@H]2CNC(=O)C[C@H]2C1		> 100 µM		> 100 µM		> 100 µM		> 100 µM		> 100 µM		> 100 µM		> 100 µM		> 100 µM		> 100 µM		> 100 µM
CC1=C2[C@@H](CC1)[C@]1(C)O[C@@](C(C)C)(C[C@H]1OC(=O)[C@H](C)O)[C@H]2OC(=O)/C=C/c1ccccc1	12.5 µM	28.9 µM	13.4 µM	29.2 µM	13.5 µM	39.5 µM	5.95 µM	19.4 µM	13.4 µM	32.5 µM	10.7 µM	32 µM	10.3 µM	24.9 µM	7.9 µM	30.8 µM	16.4 µM	33.9 µM	1.01 µM	18.7 µM
CCC1CCC2CCCC(C)N12 (stereo unspecified)		> 100 µM		> 100 µM		> 100 µM		> 100 µM		> 100 µM		> 100 µM		> 100 µM		> 100 µM		> 100 µM		> 100 µM
O=C1Oc2cc3c(c4cccc1c24)OCN(c1ccc(Cl)cc1)C3		> 100 µM		29.3 µM		> 55.5 µM		49.1 µM		> 57.8 µM		51.4 µM		96.6 µM		42.1 µM		> 55.3 µM		32.2 µM
Cc1cccc2c3ccc4c(c3n(C)c12)C(=O)C=CC4=O		> 100 µM		> 100 µM		41.9 µM		> 100 µM		> 100 µM		> 100 µM		> 100 µM		> 100 µM		> 100 µM		> 100 µM
CN(C)CCNC(=O)c1cccc2nc3c(Cl)cccc3nc12		> 35.6 µM		16.1 µM		> 100 µM		> 24.2 µM		> 36.8 µM		10.4 µM		27.6 µM		82.6 µM		> 40.4 µM		> 40.5 µM
CCCCn1/c(=N/C(=S)N(C)C)ss/c1=N\C(=S)N(C)C		> 100 µM		> 100 µM		> 100 µM		> 100 µM		> 100 µM		> 100 µM		> 100 µM		> 100 µM		> 100 µM		> 100 µM
O=C(O)CCCc1ccc(N(CCCl)CCCl)cc1	12.7 µM and > 89.5 µM	> 92.2 µM and 633 µM and 621 µM	23 µM and 144 µM	63 µM and 389 µM and 328 µM	0.979 µM	21.2 µM and 121 µM	25.2 µM and 99.1 µM	46.6 µM and 199 µM and 175 µM	14.9 µM and 91.3 µM		0.999 µM	12.7 µM and 104 µM	24.7 µM and 185 µM	43.5 µM and 327 µM and 284 µM	13 µM	81.1 µM and 447 µM and 335 µM	13.8 µM and 107 µM	51.4 µM and 356 µM and 399 µM	9.38 µM and 32 µM	34.7 µM and 272 µM and 56.2 µM
O=C(/C=C(\[O-])c1ccccc1)CCCCCCC(=O)/C=C(\[O-])c1ccccc1.O=C(/C=C(\[O-])c1ccccc1)CCCCCCC(=O)/C=C(\[O-])c1ccccc1.O=C(/C=C(\[O-])c1ccccc1)CCCCCCC(=O)/C=C(\[O-])c1ccccc1.[La+3].[La+3]	> 50 µM	> 50 µM	> 50 µM	> 50 µM	> 50 µM	> 50 µM	> 50 µM	> 50 µM	> 50 µM	> 50 µM	> 50 µM	> 50 µM	> 50 µM	> 50 µM	> 50 µM	> 50 µM	> 50 µM	> 50 µM	> 50 µM	> 50 µM
CCOC(=O)c1cc(-c2ccc([N+](=O)[O-])cc2)n(-c2ccc(C(=O)O)c(O)c2)c1C	3.38 µM	12.7 µM	2.78 µM	11.6 µM	4.94 µM	48.4 µM	2.09 µM	13.4 µM	4.26 µM	15.2 µM	3.37 µM	20.7 µM	4.11 µM	19.7 µM	0.148 µM	> 100 µM	4.76 µM	16.8 µM	3.74 µM	18.3 µM
COc1cc2c(cc1O)[C@H](Cc1ccc(Oc3cc(C[C@H]4c5cc(OC)c(OC)cc5CCN4C)ccc3OC)cc1)NCC2		32.8 µM		20.9 µM		34.6 µM		20.1 µM		3.56 µM		25.5 µM		27.1 µM		46.8 µM		25.5 µM		21.2 µM
CN1CCCNCCN(CCc2ccccn2)CCCN(C)CC1		> 100 µM		> 100 µM		> 63.6 µM		> 100 µM		> 100 µM		> 100 µM		> 100 µM		> 70.4 µM		> 53.6 µM		> 100 µM
S=C1NCCN1C1=Nc2ccccc2CO1	> 100 µM	> 100 µM	> 100 µM	> 100 µM	> 100 µM	> 100 µM	> 100 µM	> 100 µM	> 100 µM	> 100 µM	> 100 µM	> 100 µM	> 100 µM	> 100 µM	> 100 µM	> 100 µM	> 100 µM	> 100 µM	> 100 µM	> 100 µM
Cc1cccc(C(C)(C)C)c1NC(=O)C(=O)Cc1nc2ccccc2s1		> 100 µM		> 100 µM		> 100 µM		> 100 µM		> 100 µM		> 100 µM		> 100 µM		> 100 µM		> 100 µM		> 100 µM
N#Cc1cnn2ccn(C3OC(COC(=O)c4ccccc4)C(OC(=O)c4ccccc4)C3OC(=O)c3ccccc3)c12 (stereo unspecified)		> 21.5 µM		> 21.5 µM		> 21.5 µM		> 31.6 µM		> 21.5 µM		> 21.5 µM		> 21.5 µM		> 21.5 µM		> 21.5 µM		> 21.5 µM
COc1cc2c(c(OC)c1OC)-c1ccc(NCc3ccccc3)c(=O)cc1[C@@H](NC(C)=O)CC2	0.453 µM	> 100 µM	0.419 µM	> 100 µM	0.353 µM		0.318 µM	4.1 µM	0.359 µM	23.2 µM	0.489 µM	> 87.5 µM	0.989 µM	45.9 µM	0.531 µM	16.3 µM	0.391 µM	> 100 µM	4.99 µM	44.9 µM
Cn1c(-c2nonc2N)nc2cnccc21	> 25 µM	> 25 µM	> 25 µM	> 25 µM	> 25 µM	> 25 µM	8.73 µM	> 25 µM	> 25 µM	> 25 µM	> 25 µM	> 25 µM	> 25 µM	> 25 µM	> 25 µM	> 25 µM	> 25 µM	> 25 µM	> 17.8 µM	> 25 µM
COC(=O)c1c2c(c(C)[n+]([O-])c1C)C(=O)C=CC2=O	3.12 µM	11.6 µM	0.945 µM	7.5 µM	2.16 µM	4.84 µM	2.12 µM	6.03 µM	1.78 µM	3.45 µM	1.69 µM	4.65 µM	1.2 µM	2.47 µM	2.07 µM	5.29 µM	1.54 µM	3.74 µM	1.69 µM	3.39 µM
COc1cccc(-c2nn(-c3ccccc3)cc2-c2ccnc(NCCCNS(=O)(=O)c3cccc(F)c3)c2)c1	6.34 µM	> 100 µM	3.67 µM	> 100 µM	3.52 µM	24.7 µM	2.42 µM	9.63 µM	3.3 µM	> 100 µM	2.64 µM	8 µM	3.28 µM	> 100 µM	2.91 µM	9.92 µM	5.54 µM	> 100 µM	1.87 µM	> 100 µM
